Patent US20230233576A1, “ECLITASERTIB FOR USE IN TREATING CONDITIONS INVOLVING SYSTEMIC HYPERINFLAMMATORY RESPONSE” (priority 2020, published 2023)
Values joined by “and” are separate entries in the source; they are usually repeats but may differ in a detail not shown here. Equal entries are not always repeated.

Tests used:
[1] = non-human primate toxicology studies; type: in vivo; settings: up to 29 days and up to 500 mg/kg/day
[2] = test system: C-reactive protein (CRP) levels; experiment: Phase 1b severe COVID-19 study: CRP level; type: in vivo, human; settings: 600 mg; for CRP raw data Mean / CRP relative change from baseline Mean / CRP raw data Median / CRP relative change from baseline Median: observed; for CRP raw data Mean / CRP relative change from baseline Mean: no imputation
[3] = test system: adult participants hospitalized for severe COVID-19; experiment: Phase 1b severe COVID-19 study: 7-point clinical scale; type: in vivo, human; settings: 600 mg
Text: Exploratory clinical assessments endpoints included: • Change from baseline in ferritin and LDH at Day 7 and EOT • Proportion of participants per category of the 7-point clinical scale at EOT • Time to improvement by 2 points in category of 7-point clinical scale • Quantitative SARS-COV-2 viral load in blood at baseline and on Day 3, 5, 7 and EOT
The 7-point clinical scale is described below: • 1. Death • 2. Hospitalized, on invasive mechanical ventilation or ECMO • 3. Hospitalized, on non-invasive ventilation or high flow oxygen devices • 4. Hospitalized, requiring supplemental oxygen • 5. Hospitalized, not requiring supplemental oxygen—requiring ongoing medical care (COVID-19 related or otherwise) • 6. Hospitalized, not requiring supplemental oxygen—no longer requires ongoing medical care • 7. Not hospitalized

[4] = test system: peripheral cytokine and biomarker levels; experiment: Phase 1b severe COVID-19 study: peripheral cytokine and biomarker levels; type: in vivo, human; settings: 600 mg, Day 7
Text: The biomarker variables included pro-inflammatory cytokines (such as IL 4, IL-6, IL-10, IL-17, TNFα, and IFNγ) and RIPK1 PD cytokines/chemokines (such as MIP1α and MIP1β) that are elevated in participants with SARS-CoV-2.
The exploratory PD/biomarker endpoint was the change from baseline in peripheral cytokine and biomarker levels up to EOT.
Each analyte was selected, and the assay analytically validated based on reports in the literature and in-house research.

[5] = Day 03, MMRM, LOCF, Efficacy population
[6] = Day 05, MMRM, LOCF, Efficacy population
[7] = Day 07, MMRM, LOCF, Efficacy population
[8] = Day 15, MMRM, LOCF, Efficacy population
[9] = Kaplan-Meier, Efficacy population
[10] = EOT, Efficacy population (N = 41)

Compound: CN1C(=O)[C@@H](NC(=O)c2nnc(Cc3ccccc3)[nH]2)COc2cccnc21 [RIPK1 Inhibitor, (S)-5-benzyl-N-(5-methyl-4-oxo-2,3,4,5-tetrahydropyrido[3,2-b][1,4]oxazepin-3-yl)-4H-1,2,4-triazole-3-carboxamide]
- safety concerns in toxicology studies [1]: did not raise any safety concerns
- Percent change from baseline in CRP, point estimate [2, 5]: −12.85%
- Relative change from baseline in CRP, point estimate (geometric means) [2, 5]: 0.87
- CRP raw data Mean ([2]; Day 3, Efficacy population): 59.4 mg/L
- CRP relative change from baseline Mean ([2]; Day 3, Efficacy population): 0.58 and 0.581
- CRP raw data Median ([2]; Day 3, Efficacy population): 44.4 mg/L
- CRP relative change from baseline Median ([2]; Day 3, Efficacy population): 0.384
- relative change from baseline in CRP, RIPK1 Inhibitor versus placebo ratio ([2]; Day 3, with imputation of missing data): 0.91
- relative change from baseline in CRP, RIPK1 Inhibitor versus placebo ratio ([2]; Day 3, without imputation of missing data): 0.92
- Percent change from baseline in CRP, point estimate [2, 6]: −51.43%
- Relative change from baseline in CRP, point estimate (geometric means) [2, 6]: 0.49
- CRP raw data Mean ([2]; Day 5, Efficacy population): 37.7 mg/L
- CRP relative change from baseline Mean ([2]; Day 5, Efficacy population): 0.37 and 0.368
- CRP raw data Median ([2]; Day 5, Efficacy population): 24.2 mg/L
- CRP relative change from baseline Median ([2]; Day 5, Efficacy population): 0.195
- relative change from baseline in CRP, RIPK1 Inhibitor versus placebo ratio ([2]; Day 5, with imputation of missing data): 0.70
- relative change from baseline in CRP, RIPK1 Inhibitor versus placebo ratio ([2]; Day 5, without imputation of missing data): 0.73
- mean of relative change from baseline in CRP ([2]; Day 7, LOCF imputation): 0.315
- median of relative change from baseline in CRP ([2]; Day 7, LOCF imputation): 0.165
- Percent change from baseline in CRP, point estimate [2, 7]: −64.81%
- Relative change from baseline in CRP, point estimate (geometric means) [2, 7]: 0.35
- ratio of the adjusted relative change from baseline in CRP, RIPK1 Inhibitor vs placebo (point estimate) ([2]; Day 7, MMRM, LOCF, Efficacy population, below 1 = larger decrease than placebo): 0.85
- observed mean of CRP ([2]; Day 7, missing values imputed with LOCF): 28.1 mg/L
- CRP raw data Mean ([2]; Day 7, Efficacy population): 24.2 mg/L
- CRP relative change from baseline Mean ([2]; Day 7, Efficacy population): 0.289
- CRP raw data Median ([2]; Day 7, Efficacy population): 14.0 mg/L
- CRP relative change from baseline Median ([2]; Day 7, Efficacy population): 0.119
- Percent change from baseline in CRP, point estimate [2, 8]: −71.76%
- Relative change from baseline in CRP, point estimate (geometric means) [2, 8]: 0.28
- CRP raw data Mean ([2]; Day 15, Efficacy population): 29.2 mg/L
- CRP relative change from baseline Mean ([2]; Day 15, Efficacy population): 0.380
- CRP raw data Median ([2]; Day 15, Efficacy population): 9.6 mg/L
- CRP relative change from baseline Median ([2]; Day 15, Efficacy population): 0.092
- median time for 50% decrease in CRP level relative to baseline [2, 9]: 3 days
- participants with 50% decrease from baseline in CRP ([2]; by Day 3): 69.2%
- 7-point clinical scale category 3, participants [3, 10]: 0 n
- 7-point clinical scale category 5, participants [3, 10]: 0 n
- 7-point clinical scale category 6, participants [3, 10]: 0 n
- median time to improvement by at least 2 points in the category of 7-point scale [3, 9]: 8 days
- participants with a 7-point clinical scale score of 5 or lower ([3]; end of study treatment period or early discontinuation): 15%
- IL-6 fold change from baseline ([4]; LOCF, Safety population): 0.4
- IL-10 fold change from baseline ([4]; LOCF, Safety population): 0.48
- chemokine (C-X-C motif) Ligand 10 fold change from baseline ([4]; LOCF, Safety population): 0.26
- interferon gamma fold change from baseline ([4]; LOCF, Safety population): 0.44
- IL-6, ratio of relatives changes (RIPK1 Inhibitor versus placebo) ([4]; not statistically significant): 0.63
- IL-10, ratio of relatives changes (RIPK1 Inhibitor versus placebo) ([4]; not statistically significant): 0.82
